Our source for the EC50 values is patent publication US7183304B2, “Heterocyclic compounds and methods of use” (Novartis AG, priority 2001, dated 2007).

Assay type in all cases: biochemical
Common to all, as to conditions: TR-FRET coactivator (SRC-1) recruitment
In general terms: Time-resolved FRET reads energy transfer from a long-lived donor to a nearby acceptor.

Assay [1] concerns the target T1, PPARγ receptor (GST-hPPARγ LBD) (Homo sapiens, UniProt P37231).
T1 construct: GST-hPPARγ LBD (amino acids 175–476); made in house; host or cells: E. coli BL21 (DE3), pGEX vector
T1 sequence (P37231 175-476 isoform P37231-2): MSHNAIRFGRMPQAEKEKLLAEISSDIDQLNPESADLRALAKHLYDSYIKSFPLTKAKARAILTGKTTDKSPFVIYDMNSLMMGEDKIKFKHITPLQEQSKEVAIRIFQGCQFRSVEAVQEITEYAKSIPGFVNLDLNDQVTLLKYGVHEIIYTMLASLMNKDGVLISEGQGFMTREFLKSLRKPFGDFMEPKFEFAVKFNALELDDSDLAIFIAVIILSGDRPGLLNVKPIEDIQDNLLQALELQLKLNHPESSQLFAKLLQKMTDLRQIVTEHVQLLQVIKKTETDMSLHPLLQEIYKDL
Briefly: PPARγ functional binding assay (CARLA, TR-FRET). Here is the method:
(§1) The in vitro functional binding to the PPARα, PPARδ and PPARγ receptors is determined as follows:
(§2) The functional binding assays for the PPARα, PPARδ and PPARγ receptors are a variation of the coactivator-dependent receptor ligand assay (CARLA) (see Krey et al., “Fatty Acids, Eicosanoids, and Hypolipidemic Agents Identified as Ligands of Peroxisome Proliferator-Activated Receptors by Coactivator-Dependent Receptor Ligand Assay”, Molecular Endocrinology, Vol. 11, pp. 779–791 (1997)). The present CARLA assays use a TR-FRET detection method previously reviewed (see Hemmila, “LANCE: Homogeneous Assay Platform for HTS”, J. Biomol. Screening, Vol. 4, pp. 303–307 (1999); Mathis, “HTRF Technology”, J. Biomol. Screening, Vol. 4, pp. 309–313 (1999)). All assays included 3 nM of the glutathione-S-transferase (GST) fusion proteins of either the hPPARα ligand binding domain (LBD) (amino acids 167–468) (GST-hPPARα LBD), GST-hPPARδ LBD (amino acids 139–442) or GST-hPPARγ LBD (amino acids 175–476); 3 nM Eu-labeled anti-GST antibody (Wallac); 30 nM biotinylated steroid receptor coactivator-1 (SRC-1) peptide (an N-terminal biotinylated peptide, […], derived from amino acids 676–700 of SRC-1); and 10 nM streptavidin-labelled allophycocyanin (APC; Prozyme). The binding of a ligand to a PPAR LBD alters the conformation of the LBD and permits the biotinylated SRC-1 peptide to bind. This brings the Eu-labeled anti-GST antibody and the strepavidin-labeled APC in close proximity, thereby facilitating fluorescence energy transfer. The biotinylated SRC-1 peptide is prepared by standard solid-phase peptide synthetic methods. The GST-PPAR LBDs are expressed in pGEX vectors (Amersham Pharmacia) in the E. coli strain BL21 (DE3) using standard expression conditions at 18° C. In some cases the GST-PPAR LBDs are co-expressed with groESL. […] After mixing all components, the reaction mixture stands for 3 hours at room temperature before reading the TR-FRET (Time-Resolved Fluorescence Resonance Energy Transfer) signal on a Wallac Victor 2 plate reader (measuring the ratio of signals at […]). […]

Assay [2] concerns the target T2, PPARα receptor (GST-hPPARα LBD) (Homo sapiens, UniProt Q07869).
T2 construct: made in house; host or cells: E. coli BL21 (DE3), pGEX vector
T2 sequence (Q07869 167-468): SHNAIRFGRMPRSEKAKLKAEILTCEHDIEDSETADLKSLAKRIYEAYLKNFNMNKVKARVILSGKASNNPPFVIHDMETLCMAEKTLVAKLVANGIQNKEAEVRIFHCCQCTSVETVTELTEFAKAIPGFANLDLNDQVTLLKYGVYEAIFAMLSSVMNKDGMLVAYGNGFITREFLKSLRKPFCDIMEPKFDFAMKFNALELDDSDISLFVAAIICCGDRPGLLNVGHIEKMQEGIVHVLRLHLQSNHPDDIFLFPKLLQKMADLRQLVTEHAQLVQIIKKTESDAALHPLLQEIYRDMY
Put plainly: PPARα functional binding assay (CARLA, TR-FRET). Here is the method:
as §1, §2

Assay [3] deals with T3, PPARδ receptor (GST-hPPARδ LBD) (Homo sapiens, UniProt Q03181).
T3 construct: GST-hPPARδ LBD (amino acids 139–442); made in house; host or cells: E. coli BL21 (DE3), pGEX vector
T3 sequence (Q03181 139-441 limits assumed): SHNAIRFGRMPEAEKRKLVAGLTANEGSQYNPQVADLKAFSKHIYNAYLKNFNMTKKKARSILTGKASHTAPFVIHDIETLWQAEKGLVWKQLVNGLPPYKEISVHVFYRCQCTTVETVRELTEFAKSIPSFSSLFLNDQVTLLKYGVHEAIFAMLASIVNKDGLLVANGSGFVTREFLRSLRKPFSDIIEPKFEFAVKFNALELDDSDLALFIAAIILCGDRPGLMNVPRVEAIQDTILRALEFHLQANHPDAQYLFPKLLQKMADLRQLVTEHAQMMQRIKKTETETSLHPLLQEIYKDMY
T3 sequence (Q15788 676-700 partner limits assumed): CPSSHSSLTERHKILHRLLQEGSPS
Briefly: PPARδ functional binding assay (CARLA, TR-FRET). Here is the method: as §1, §2

In general, EC50 refers to the concentration giving half of the maximal effect. Regarding `CCCc1cc(Oc2ccccc2)ccc1OCCCOc1ccc(S(=O)(=O)N2c3ccccc3C[C@@H]2C(=O)O)cc1` [Example 1, (R)-1-{4-[3-(4-Phenoxy-2-propyl-phenoxy)-propoxy]-benzenesulfonyl}-2,3-dihydro-1H-indole-2-carboxylic acid], the values for the EC50 in assay [1], in assay [2] and in assay [3] were approximately 23 nM, approximately 27 nM and approximately 173 nM, respectively.

`Cc1oc(-c2ccccc2)nc1COc1ccc(S(=O)(=O)N2CC[C@@H]2C(=O)O)cc1` [Example 5–10, (R)-1-[4-(5-Methyl-2-phenyl-oxazol-4-ylmethoxy)-benzenesulfonyl]-azetidine-2-carboxylic acid]: the EC50 in assay [1] was approximately 3 nM; in assay [2], approximately 3 nM; in assay [3], approximately 1250 nM.

On to `Cc1oc(-c2ccccc2)nc1COc1ccc(S(=O)(=O)N2CCC[C@@H]2C(=O)O)cc1` [Example 6–39, (R)-1-[4-(5-Methyl-2-phenyl-oxazol-4-ylmethoxy)-benzenesulfonyl]-pyrrolidine-2-carboxylic acid], for which the results for the EC50 in assay [1], in assay [2] and in assay [3] were approximately 2 nM, approximately 7 nM and approximately 1160 nM, respectively.
